Source: US12516038B2, “Inhibitors of antigen presentation by HLA-DR” (Janssen Pharmaceutica NV, priority 2020, dated 2026)

Columns and labels:
HLA-DRB1*0401 = HLA-DRB1*0401 (Homo sapiens (Human), UniProt P01903+P01911, A100K/A169T/DEL228-266/F76Y/I96L/K127E/L162R/M171V/N62H/P40V/Q125Y/R42H/S133A/S149N/S66Y/V115G/V209L/W38E); assay: HLA-DR4 HTRF assay; format: binding; conditions: inhibition of loading of Alexa Fluor 647-labeled Cit-CII peptide onto HLA-DR4 (CLIP cleaved)
Outline: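 HLA-DRB1*04:01 construct (α/β fused to human Fc, CLIP pre-cleaved by HRV3C overnight at 4° C) at 3 nM was preincubated 45 min with compound and 1 nM anti-Fc-Tb donor, then 40 nM Alexa647-Cit-CII1236-1249 peptide added. After 90 min at 37° C, the 665/620 nm HTRF ratio gave % inhibition; IC50 by nonlinear regression.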

[1] = tested on: HLA-DR4 restricted mouse T cell hybridoma line (DR4.CII.36.8) with HLA-DRB1*04:01-expressing Boleth cells; assay: HLA-DR4-restricted peptide-specific T cell-based assay (hybridoma assay); conditions: 6 h, inhibition of IL-2 production, CII259-273 peptide presented by Boleth cells
Outline: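 IC50 values derive from 4-parameter logistic fits of IL-2 AlphaLISA signal over 8-point duplicate titrations. Compound and HLA-DRB1*04:01 Boleth APCs were preincubated 1 h, 37° C., before adding CII259-273-restricted DR4.CII.36.8 hybridoma cells with peptide for 6 h at 37° C., in DMEM/1% FCS.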

Compound: NC(=O)c1ccc([C@@H](Oc2ccc3c(c2)OCCC3=O)c2ccncc2-c2ccccc2)cc1 (single isomer, unassigned) [Example 25a, (*R)-4-(((4-oxochroman-7-yl)oxy)(3-phenylpyridin-4-yl)methyl)benzamide]
- IC50 (HLA-DRB1*0401): 480 nM
- IC50 ([1]; Mus musculus, T-cell): 6400 nM

Compound: Cc1cc([C@@H](Oc2ccc3c(c2C#N)OCCC3=O)c2ccc(C(N)=O)cc2)cc(C)n1 (single isomer, unassigned) [Example 110b, (*S)-4-(((8-cyano-4-oxochroman-7-yl)oxy)(2,6-dimethylpyridin-4-yl)methyl)benzamide]
- IC50 (HLA-DRB1*0401): 610 nM
- IC50 ([1]; Mus musculus, T-cell): 790 nM

Compound: Cc1cc(C(N)=O)ccc1[C@@H](Oc1ccc2c(c1)OCCC2=O)c1ccncc1 (single isomer, unassigned) [Example 36b, (*S)-3-methyl-4-(((4-oxochroman-7-yl)oxy)(pyridin-4-yl)methyl)benzamide]
- IC50 (HLA-DRB1*0401): 570 nM
- IC50 ([1]; Mus musculus, T-cell): 5100 nM

Compound: O=C1CCOc2cc(O[C@@H](c3ccncc3)c3ccc(OCc4ccccc4)cc3)ccc21 (single isomer, unassigned) [Example 16a, (*R)-7-((4-(benzyloxy)phenyl)(pyridin-4-yl)methoxy)chroman-4-one]
- IC50 (HLA-DRB1*0401): 8100 nM
- IC50 ([1]; Mus musculus, T-cell): 12000 nM

Compound: N#Cc1cc(O[C@@H](c2ccncc2)c2ccc(C(N)=O)cc2)cc2c1C(=O)CCO2 (single isomer, unassigned) [Example 101a, (*R)-4-(((5-cyano-4-oxochroman-7-yl)oxy)(pyridin-4-yl)methyl)benzamide]
- IC50 (HLA-DRB1*0401): 960 nM
- IC50 ([1]; Mus musculus, T-cell): > 15000 nM

Compound: Cc1c(O[C@H](c2ccc(C(N)=O)cc2)c2ccc(S(C)(=O)=O)cc2)c(F)cc2c1OCCC2=O (single isomer, unassigned) [Example 93a, (*R)-4-(((6-fluoro-8-methyl-4-oxochroman-7-yl)oxy)(4-(methylsulfonyl)phenyl)methyl)benzamide]
- IC50 (HLA-DRB1*0401): 190 nM
- IC50 ([1]; Mus musculus, T-cell): 6000 nM

Compound: Cc1cc([C@H](Oc2ccc3c(c2C)OCCC3=O)c2ccc(C(N)=O)cc2)cc(C)n1 (single isomer, unassigned) [Example 111a, (*R)-4-((2,6-dimethylpyridin-4-yl)((8-methyl-4-oxochroman-7-yl)oxy)methyl)benzamide]
- IC50 (HLA-DRB1*0401): 490 nM
- IC50 ([1]; Mus musculus, T-cell): 600 nM

Compound: C[C@@H]1CC(=O)c2ccc(O[C@H](c3ccncc3)c3ccc(C(N)=O)cc3)cc2O1 (single isomer, unassigned) [Example 39a, 4-((*S)—(((*R)-2-Methyl-4-oxochroman-7-yl)oxy)(pyridin-4-yl)methyl)benzamide]
- IC50 (HLA-DRB1*0401): 1100 nM
- IC50 ([1]; Mus musculus, T-cell): 14000 nM

Compound: NC(=O)c1ccc([C@H](Oc2ccc3c(c2)OCCC3=O)c2ccccn2)cc1 (single isomer, unassigned) [Example 32b, (*S)-4-(((4-oxochroman-7-yl)oxy)(pyridin-2-yl)methyl)benzamide]
- IC50 (HLA-DRB1*0401): 1900 nM
- IC50 ([1]; Mus musculus, T-cell): > 15000 nM

Compound: Cc1cc([C@H](Oc2ccc3c(c2)OCCC3=O)c2ccncc2)ccc1C(N)=O (single isomer, unassigned) [Example 35b, (*S)-2-methyl-4-(((4-oxochroman-7-yl)oxy)(pyridin-4-yl)methyl)benzamide]
- IC50 (HLA-DRB1*0401): 830 nM
- IC50 ([1]; Mus musculus, T-cell): 5200 nM

Compound: Cc1cc(COc2ccc3c(c2C(C)C)OCCC3=O)cc(C)n1 [Example 117, 7-((2,6-Dimethylpyridin-4-yl)methoxy)-8-isopropylchroman-4-one]
- IC50 (HLA-DRB1*0401): 680 nM
- IC50 ([1]; Mus musculus, T-cell): 3100 nM

Compound: Cc1c(O[C@@H]2CCc3cc(C(N)=O)ccc32)ccc2c1OCCC2=O (single isomer, unassigned) [Example 121a, (*R)-1-((8-methyl-4-oxochroman-7-yl)oxy)-2,3-dihydro-1H-indene-5-carboxamide]
- IC50 (HLA-DRB1*0401): 930 nM
- IC50 ([1]; Mus musculus, T-cell): > 15000 nM

Compound: Cc1c(O[C@@H](c2ccc(C(N)=O)cc2)c2cccc(F)c2)ccc2c1OCCC2=O (single isomer, unassigned) [Example 67b, (*S)-4-((3-Fluorophenyl)((8-methyl-4-oxochroman-7-yl)oxy)methyl)benzamide]
- IC50 (HLA-DRB1*0401): 2200 nM
- IC50 ([1]; Mus musculus, T-cell): > 15000 nM

Compound: Cc1c(O[C@H](c2ccc(F)cc2)c2ccc(C(N)=O)cc2)ccc2c1OCCC2=O (single isomer, unassigned) [Example 66b, (*S)-4-((4-Fluorophenyl)((8-methyl-4-oxochroman-7-yl)oxy)methyl)benzamide]
- IC50 (HLA-DRB1*0401): 2400 nM
- IC50 ([1]; Mus musculus, T-cell): > 15000 nM

Compound: Cc1cc([C@H](Oc2ccc3c(c2C#N)OCCC3=O)c2ccc(C(N)=O)cc2)cc(C)n1 (single isomer, unassigned) [Example 110a, (*R)-4-(((8-cyano-4-oxochroman-7-yl)oxy)(2,6-dimethylpyridin-4-yl)methyl)benzamide]
- IC50 (HLA-DRB1*0401): 550 nM
- IC50 ([1]; Mus musculus, T-cell): 120 nM

Compound: CC(C)c1c(O[C@@H](c2ccc(C(N)=O)cc2)c2ccc(C(=O)O)cc2)ccc2c1OCCC2=O (single isomer, unassigned) [Example 108b, (*S)-4-((4-carbamoylphenyl)((8-isopropyl-4-oxochroman-7-yl)oxy)methyl)benzoic acid]
- IC50 (HLA-DRB1*0401): 820 nM
- IC50 ([1]; Mus musculus, T-cell): 2700 nM

Compound: Cc1c(O[C@@H]2CCCc3cc(C(N)=O)ccc32)ccc2c1OCCC2=O (single isomer, unassigned) [Example 123a, (*R)-5-((8-methyl-4-oxochroman-7-yl)oxy)-5,6,7,8-tetrahydronaphthalene-2-carboxamide]
- IC50 (HLA-DRB1*0401): 630 nM
- IC50 ([1]; Mus musculus, T-cell): 7900 nM

Compound: Cc1c(O[C@@H](c2ccc(C(N)=O)cc2)c2cccc(C#N)c2)c(F)cc2c1OCCC2=O (single isomer, unassigned) [Example 92b, (*S)-4-((3-cyanophenyl)((6-fluoro-8-methyl-4-oxochroman-7-yl)oxy)methyl)benzamide]
- IC50 (HLA-DRB1*0401): 190 nM
- IC50 ([1]; Mus musculus, T-cell): > 15000 nM

Compound: NC(=O)c1ccc([C@@H](Oc2ccc3c(c2)OCCC3=O)c2ccc(Cl)cc2)cc1 (single isomer, unassigned) [Example 30a, (*R)-4-((4-Chlorophenyl)((4-oxochroman-7-yl)oxy)methyl)benzamide]
- IC50 (HLA-DRB1*0401): 930 nM
- IC50 ([1]; Mus musculus, T-cell): 5900 nM

Compound: COc1c(O[C@H](c2ccncc2)c2ccc(C(N)=O)cc2)ccc2c1OCCC2=O (single isomer, unassigned) [Example 100b, (*S)-4-(((8-methoxy-4-oxochroman-7-yl)oxy)(pyridin-4-yl)methyl)benzamide]
- IC50 (HLA-DRB1*0401): 9000 nM
- IC50 ([1]; Mus musculus, T-cell): 2300 nM

Compound: COc1ccc([C@@H](Oc2c(F)cc3c(c2C)OCCC3=O)c2ccncc2)cc1F (single isomer, unassigned) [Example 97b, (*S)-6-fluoro-7-((3-fluoro-4-methoxyphenyl)(pyridin-4-yl)methoxy)-8-methylchroman-4-one]
- IC50 (HLA-DRB1*0401): 380 nM
- IC50 ([1]; Mus musculus, T-cell): > 15000 nM

Compound: NC(=O)c1ccc([C@@H](Oc2ccc3c(c2)OCCC3=O)c2ccncn2)cc1 (single isomer, unassigned) [Example 33a, (*R)-4-(((4-Oxochroman-7-yl)oxy)(pyrimidin-4-yl)methyl)benzamide]
- IC50 (HLA-DRB1*0401): 580 nM
- IC50 ([1]; Mus musculus, T-cell): 8700 nM

Compound: COc1ccc([C@H](Oc2c(F)cc3c(c2C)OCCC3=O)c2ccncc2)cc1F (single isomer, unassigned) [Example 97a, (*R)-6-fluoro-7-((3-fluoro-4-methoxyphenyl)(pyridin-4-yl)methoxy)-8-methylchroman-4-one]
- IC50 (HLA-DRB1*0401): 410 nM
- IC50 ([1]; Mus musculus, T-cell): 5200 nM

Compound: COc1cccc([C@H](Oc2ccc3c(c2)OCCC3=O)c2ccncc2)c1 (single isomer, unassigned) [Example 13a, (*R)-7-((3-methoxyphenyl)(pyridin-4-yl)methoxy)chroman-4-one]
- IC50 (HLA-DRB1*0401): 2000 nM
- IC50 ([1]; Mus musculus, T-cell): > 15000 nM

Compound: COc1cc(C(N)=O)ccc1[C@@H](Oc1ccc2c(c1C)OCCC2=O)c1ccncc1 (single isomer, unassigned) [Example 82b, (*S)-3-Methoxy-4-(((8-methyl-4-oxochroman-7-yl)oxy)(pyridin-4-yl)methyl)benzamide]
- IC50 (HLA-DRB1*0401): 620 nM
- IC50 ([1]; Mus musculus, T-cell): 5700 nM

Compound: C[C@H]1CC(=O)c2ccc(O[C@H](c3ccncc3)c3ccc(C(N)=O)cc3)cc2O1 (single isomer, unassigned) [Example 39d, 4-((*S)—(((*S)-2-Methyl-4-oxochroman-7-yl)oxy)(pyridin-4-yl)methyl)benzamide]
- IC50 (HLA-DRB1*0401): 1000 nM
- IC50 ([1]; Mus musculus, T-cell): 15000 nM

Compound: NC(=O)c1ccc([C@H](Oc2cc3c(cc2F)C(=O)CCO3)c2ccncc2)cc1 (single isomer, unassigned) [Example 52b, (*S)-4-(((6-Fluoro-4-oxochroman-7-yl)oxy)(pyridin-4-yl)methyl)benzamide]
- IC50 (HLA-DRB1*0401): 300 nM
- IC50 ([1]; Mus musculus, T-cell): 8500 nM

Compound: Cc1c(O[C@H](c2ccc(C(N)=O)cc2)c2cccc[n+]2[O-])ccc2c1OCCC2=O (single isomer, unassigned) [Example 65a, (*R)-2-((4-carbamoylphenyl)((8-methyl-4-oxochroman-7-yl)oxy)methyl)pyridine 1-oxide]
- IC50 (HLA-DRB1*0401): 30000 nM
- IC50 [1]: > 15000 nM

Compound: NC(=O)c1ccccc1[C@H](Oc1ccc2c(c1)OCCC2=O)c1ccncc1 (single isomer, unassigned) [Example 8a, (*R)-2-(((4-Oxochroman-7-yl)oxy)(pyridin-4-yl)methyl)benzamide]
- IC50 (HLA-DRB1*0401): 680 nM
- IC50 ([1]; Mus musculus, T-cell): > 15000 nM
